Source: patent US20250376698A1, “COMPOSITIONS AND METHODS FOR PROMOTING LIVER REGENERATION BY GENE EDITING IN METABOLIC LIVER DISEASE” (priority 2022, published 2025)
Like-named read-outs stand apart in the source and are kept apart here.

Key:
GSD Ia puppies = assay: Clinical course (hypoglycemia, survival) of GSD Ia puppies treated as neonates; type: in vivo, dog
Source text: In this example, puppies with GSD Ia were initially treated with AAV-CRISPR/Cas9 and AAV-cG6PC (Donor) to perform neonatal genome editing at 2 days of age, followed by gene replacement therapy with one or more alternative serotypes of AAV to control symptoms of GSD Ia at the indicated ages for the individual puppies (Puppy 1 shown in green, Puppy 2 in purple in FIG. 4A, see Table 3 below for details). The control group of dogs were those described in Example 2 that received 3 doses of gene replacement therapy during infancy.
As shown in FIG. 4A and described in Table 3 below, two puppies with GSD Ia were treated with genome editing as neonates at a 5:1 ratio of AAV7-cG6PC and AAV7-SaCas9. One puppy was dosed at 4×10^13 vp/kg AAV7-cG6PC and 8×10^12 vp/kg AAV7-SaCas9. The other was dosed with 5×10^13 vp/kg AAV7-cG6PC and […] AAV7-SaCas9. […] Specifically, one puppy (the first described above) received two doses of gene replacement therapy (e.g., AAV10 G6Pase at 3×10^12 vp/kg and AAV8 G6Pase at 1×10^13 vp/kg) at ages 2 and 3 months, respectively. The second puppy received only one gene replacement therapy at 2 months of age (e.g., AAV9 G6Pase at 3×10^13 vp/kg). Table 3 below details the treatment protocols used for both puppies.

[1] = Protocol: Vector genomes in liver were quantified with qPCR. Briefly, AAV vector genome copy number was measured by quantitative real-time PCR with liver genomic DNA and normalized to β-actin. Plasmid DNA corresponding to 0.01 to 100 copies of canine G6Pase gene (in 500 ng genomic DNA) was used in a standard curve. qPCR was performed on a Lightcycler 480 (Roche Diagnostics, Basel, Switzerland) using SYBR Green mix (Thermo-Fisher Scientific, Waltham, MA) and the following primers: cG6Pc Fwd (5′-[…]-3′, SEQ ID NO: 65), cG6Pc Rev (5′-[…]-3′, SEQ ID NO: 66), hG6PC Fwd (5′-[…]-3′, SEQ ID NO: 67), hG6PC Rev (5′-[…]-3′, SEQ ID NO: 68), saCas9 Fwd (5′-[…]-3′, SEQ ID NO: 69), saCas9 Rev (5′-[…]-3′, SEQ ID NO: 70), cB-actin Fwd (5′-[…]-3′, SEQ ID NO: 71), cB-actin Rev (5′-[…]-3′, SEQ ID NO: 72). Cycling conditions were 95° C. for 5 min, followed by 45 cycles of 95° C. for 10 s, 60° C. for 10 s, and 72° C. for 20 s followed by acquisition.
G6Pase activity in liver = assay: Liver G6Pase activity in GSD Ia dogs; type: in vivo, dog; conditions: 32 months of age, before CRISPR (BC), after gene replacement as neonates
Protocol: G6Pase activity and glycogen levels were analyzed at 4- and 16-months following genome editing at 34 months of age as described in (Koeberl, D. et al., (2006). Early, sustained efficacy of adeno-associated virus vector-mediated gene therapy in glycogen storage disease type Ia. Gene Therapy. 13, 1281-1289). Both assays reflected corrections of the biochemical abnormalities in comparison with untreated affected controls. Normal activity was measured in a group of three unaffected dogs (two carriers and one wildtype; both genotypes are accepted as normal controls in published studies of animals with GSD Ia). Briefly, liver biopsy tissues, obtained as described in Example 2, were flash-frozen and stored at −70° C. Glycogen content was measured by complete digestion of polysaccharide using amyloglucosidase (Sigma Chemical Co., St. Louis, MO). The structure of the polysaccharide was inferred by using phosphorylase free of the debranching enzyme to measure the yield of glucose-1-phosphate. Specific G6Pase activity was measured by using glucose-6-phosphate as substrate after subtraction of nonspecific phosphatase activity as estimated by β-glycerophosphate.

canine G6PC locus = assay: Nested integration PCR in transfected GSD Ia dog fibroblasts; type: cell-based
Protocol: Next, a nested PCR reaction was performed to detect levels of DNA integration in genomic DNA in the transfected fibroblasts. Fibroblast DNA were extracted using the Wizard Genomic DNA Purification Kit (Promega, Madison, WI, USA). The canine G6Pc locus was amplified by Q5 Taq Polymerase (NEB, Ipswich, MA, USA) with the following reagents: 5 μL of Q5 buffer, 5 μL of high GC enhancer solution, 2 μL of 2.5 mM dNTP mix, 1.25 μL of 10 uM primer P1 (5′-[…]-3′, SEQ ID NO: 59)), 1.25 μL of 10 uM primer P4 (5′-[…]-3′, SEQ ID NO: 62)), 9.25 μL of water, 1 μL (100 ng) of genomic DNA, and 0.25 μL of Q5 Taq Polymerase. Cycling conditions were 35 cycles of denaturation at 95° C. for 30 s, annealing at 59° C. for 30 s, extension at 72° C. for 2 min, followed by incubation at 4° C. One microliter of first-round PCR products was used in a nested reaction with the same conditions except primers were P2 (5′-[…]-3′ (SEQ ID NO: 60)) and P3 (5′-[…]-3′ (SEQ ID NO: 61)) and cycling was 30 cycles. Control primers were P5 (5′-[…]-3′ (SEQ ID NO: 63)) and P6 (5′-[…]-3′ (SEQ ID NO: 64)).
Sequencing of the integration PCR product (total sequence: SEQ ID NO: 52) confirmed the donor sequence was inserted in the dog G6PC gene at the exon 1/intron 1 boundary. […]

[2] = dogs treated as adults, months 4 and 16 after gene editing vectors
[3] = puppies treated as neonates, Months 4 and 16

Row | Substance | effect of gene replacement vector on recurrent hypoglycemia (GSD Ia puppies; puppies, given at 2 (and 3) months) | vector copy number in liver ([1]; dogs treated as adults, 4 months following gene editing (4M)) [vg/nucleus] | vector genomes in liver (qPCR) [1, 2] | vector genomes in liver (qPCR) [1, 3] | G6Pase activity in liver (G6Pase activity in liver) | hypoglycemia and survival in the first two months of life (GSD Ia puppies; GSD Ia puppies treated at 2 days of age) | vector copy number in liver, compared with AAV-G6Pase ([1]; dogs treated as adults, 4 months following gene editing) | transgene integration (integration PCR) (canine G6PC locus)
1 | AAV-G6Pase: gene replacement AAV vector delivering human G6Pase cDNA under a human G6Pase minimal promoter, episomal expression (SEQ ID NO: 49; Luo et al. 2011) [reference compound] | reversed their symptoms | < 0.1 | detected | detected | 29±8 % of normal | – | – | –
2 | AAV-cG6PC: AAV donor vector: canine G6Pc cDNA flanked by canine G6PC 5' and 3' homology arms (SEQ ID NO: 43) | – | – | detected | detected | – | efficacious in preventing hypoglycemia and improving survival | Higher copy numbers | no detectable integration events
